Results reported in the supplement of paper PMC11061612.

What was measured:
Assay in all cases: Bliss excess, mean over the matrix (fraction); higher = more synergy
[1] = system: HPAC (Pancreatic Carcinoma)
Outline: (§1)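 Cell lines in DMEM/F12 or RPMI with 10% FBS were plated in 1536-well plates, held 24 hours at 37°C, 5% CO2, then given two-drug dose matrices for 72 hours (DMSO typically 0.2%). Viability was read by CellTiter-Glo 2.0 luminescence and scaled as inhibition from 0 (vehicle wells) to 1 (blank wells). Combination Emax is the second-highest inhibition in the matrix; Bliss excess is observed combination effect minus expected EA + EB − EA·EB, EA and EB being single-agent effects.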

[2] = system: COR-L23 (Non-Small Cell Lung Carcinoma)
Outline: as §1

[3] = system: LU-99A (Non-Small Cell Lung Carcinoma)
Outline: as §1

[4] = system: SUIT-2 (Pancreatic Carcinoma)
Outline: as §1

SK-N-FI (Neuroblastoma) = system: SK-N-FI (Neuroblastoma)
Outline: as §1

[5] = system: DOV13 (Ovarian Carcinoma)
Outline: as §1

[6] = system: U-266 (Plasma Cell Myeloma)
Outline: as §1

[7] = system: HT-29 (Colorectal Carcinoma)
Outline: as §1

[8] = system: EM-2 (Chronic Myelogenous Leukemia)
Outline: as §1

[9] = system: CTV-1 (T-Lymphoblastic Leukemia)
Outline: as §1

[10] = system: SW780 (Bladder Carcinoma)
Outline: as §1

[11] = system: DB (B-Cell Non-Hodgkin's Lymphoma)
Outline: as §1

[12] = system: TE-5 (Esophageal Squamous Cell Carcinoma)
Outline: as §1

[13] = system: SW1088 (Low Grade Glioma)
Outline: as §1

[14] = system: HCC2157 (Breast Carcinoma)
Outline: as §1

[15] = system: SNU-C5 (Colorectal Carcinoma)
Outline: as §1

SN12C (Kidney Carcinoma) = system: SN12C (Kidney Carcinoma)
Outline: as §1

[16] = system: NALM-6 (B-Lymphoblastic Leukemia)
Outline: as §1

DSH1 (Bladder Carcinoma) = system: DSH1 (Bladder Carcinoma)
Outline: as §1

[17] = system: DMS-273 (Small Cell Lung Carcinoma)
Outline: as §1

Row | Compound | Bliss excess [1] | Bliss excess [2] | Bliss excess [3] | Bliss excess [4] | Bliss excess (SK-N-FI (Neuroblastoma)) | Bliss excess [5] | Bliss excess [6] | Bliss excess [7] | Bliss excess [8] | Bliss excess [9] | Bliss excess [10] | Bliss excess [11] | Bliss excess [12] | Bliss excess [13] | Bliss excess [14] | Bliss excess [15] | Bliss excess (SN12C (Kidney Carcinoma)) | Bliss excess [16] | Bliss excess (DSH1 (Bladder Carcinoma)) | Bliss excess [17]
1 | COc1nnc2ccc(N3CCC(c4ccc(OCCN5CCN(C)C(=O)[C@H]5C)cc4)CC3)nn12 [AZD5153] + Cn1cnc2c(F)c(Nc3ccc(Br)cc3Cl)c(C(=O)NOCCO)cc21 [Selumetinib] (first compound max 1 µM, 7x7, partner max 10 µM) | 0.0161 | -0.0516 | -0.0118 | 0.0227 | -0.0386 | -0.0263 | 0.0347 | -0.0281 | 0.0468 | 0.0009 | -0.058 | 0.0093 | 0.0184 | 0.029 | -0.0038 | -0.0116 | 0.0158 | 0.0085 | -0.0458 | -0.0661
2 | CC1(C)CCC(CN2CCN(c3ccc(C(=O)NS(=O)(=O)c4ccc(NCC5CCOCC5)c([N+](=O)[O-])c4)c(Oc4cnc5[nH]ccc5c4)c3)CC2)=C(c2ccc(Cl)cc2)C1 [Venetoclax] + Cn1cnc2c(F)c(Nc3ccc(Br)cc3Cl)c(C(=O)NOCCO)cc21 [Selumetinib] (first compound max 1 µM, 7x7, partner max 3 µM) | -0.0515 | -0.0182 | -0.0484 | -0.0942 | 0.0374 | -0.0151 | 0.0137 | -0.0261 | -0.055 | -0.0173 | -0.0367 | -0.0192 | -0.0575 | -0.0407 | -0.006 | -0.0248 | -0.0489 | 0.168 | 0.0225 | -0.0184
3 | COc1nnc2ccc(N3CCC(c4ccc(OCCN5CCN(C)C(=O)[C@H]5C)cc4)CC3)nn12 [AZD5153] + Cc1c2c(nn1C)CSCc1cc(n(C)n1)CSc1cc(c3ccccc3c1)OCCCc1c(C(=O)O)n(C)c3c-2c(Cl)ccc13 [AZD5991] (first compound max 1 µM, 7x7, partner max 1 µM) | -0.0105 | -0.0296 | 0.0087 | -0.0318 | -0.0656 | -0.108 | -0.106 | -0.0227 | 0.0004 | -0.0515 | -0.0187 | 0.0507 | -0.0158 | 0.0112 | 0.0049 | -0.0417 | -0.0285 | -0.0732 | 0.0112 | -0.1
4 | Cc1c2c(nn1C)CSCc1cc(n(C)n1)CSc1cc(c3ccccc3c1)OCCCc1c(C(=O)O)n(C)c3c-2c(Cl)ccc13 [AZD5991] + C=CCn1c(=O)c2cnc(Nc3ccc(N4CCN(C)CC4)cc3)nc2n1-c1cccc(C(C)(C)O)n1 [AZD1775] (first compound max 1 µM, partner max 1 µM) | -0.0132 | -0.0079 | 0.017 | 0.0014 | -0.0478 | -0.038 | -0.0008 | -0.0045 | -0.0674 | 0.0316 | 0.0046 | -0.0165 | 0.0264 | -0.0307 | -0.0438 | 0.0145 | 0.0306 | -0.0229 | -0.0115 | -0.0476
5 | CC1(C)CCC(CN2CCN(c3ccc(C(=O)NS(=O)(=O)c4ccc(NCC5CCOCC5)c([N+](=O)[O-])c4)c(Oc4cnc5[nH]ccc5c4)c3)CC2)=C(c2ccc(Cl)cc2)C1 [Venetoclax] + COc1cc(Nc2ncc3c(n2)-c2ccc(Cl)cc2C(c2c(F)cccc2OC)=NC3)ccc1C(=O)O [Alisertib] (first compound max 1 µM, 7x7, partner max 10 µM) | -0.0517 | -0.0201 | -0.0244 | -0.0515 | 0.0916 | 0.0303 | 0.131 | 0.0016 | 0.24 | -0.0095 | -0.0455 | 0.124 | -0.105 | 0.0049 | 0.113 | -0.0682 | -0.0985 | 0.104 | 0.128 | 0.0086
6 | CC(=O)c1c(C)c2cnc(Nc3ccc(N4CCNCC4)cn3)nc2n(C2CCCC2)c1=O [Palbociclib] + CC1(C)CCC(CN2CCN(c3ccc(C(=O)NS(=O)(=O)c4ccc(NCC5CCOCC5)c([N+](=O)[O-])c4)c(Oc4cnc5[nH]ccc5c4)c3)CC2)=C(c2ccc(Cl)cc2)C1 [Venetoclax] (first compound max 10 µM, 7x7, partner max 1 µM) | -0.0619 | -0.0429 | 0.048 | -0.0454 | 0.0104 | 0.0125 | -0.116 | -0.0139 | 0.0262 | 0.0415 | -0.0395 | 0.0187 | -0.0558 | -0.018 | 0.0389 | -0.017 | -0.0525 | 0.0132 | -0.0361 | -0.0263
7 | Cc1c2c(nn1C)CSCc1cc(n(C)n1)CSc1cc(c3ccccc3c1)OCCCc1c(C(=O)O)n(C)c3c-2c(Cl)ccc13 [AZD5991] + Cn1cnc2c(F)c(Nc3ccc(Br)cc3Cl)c(C(=O)NOCCO)cc21 [Selumetinib] (first compound max 1 µM, 7x7, partner max 3 µM) | 0.005 | -0.0051 | -0.0363 | -0.0135 | -0.0042 | 0.0216 | 0.0068 | -0.006 | -0.0053 | 0.036 | 0.0631 | 0.0063 | -0.0146 | -0.0543 | -0.0137 | -0.0107 | -0.0425 | 0.0165 | -0.0881 | -0.0137
8 | Cc1nc(Nc2ncc(C(=O)Nc3c(C)cccc3Cl)s2)cc(N2CCN(CCO)CC2)n1 [Dasatinib] + CC(=O)Nc1cccc(-n2c(=O)n(C3CC3)c(=O)c3c(Nc4ccc(I)cc4F)n(C)c(=O)c(C)c32)c1 [Trametinib] (first compound max 2 µM, 7x7, partner max 1 µM) | 0.039 | 0.0284 | -0.0137 | 0.0197 | 0.0118 | 0.0135 | 0.0609 | 0.0984 | -0.0935 | 0.0181 | 0.0848 | -0.0005 | -0.0099 | -0.0087 | -0.0199 | -0.013 | -0.0254 | 0.0217 | -0.0516 | -0.0922
9 | COc1cccc(OCCCN)c1-c1cc(Nc2cnc(C#N)cn2)n[nH]1 [Prexasertib] + O=C(c1cc(Cc2n[nH]c(=O)c3ccccc23)ccc1F)N1CCN(C(=O)C2CC2)CC1 [Olaparib] (first compound max 1 µM, 7x7, partner max 10 µM) | -0.149 | 0.0116 | -0.0849 | -0.0219 | -0.0683 | 0.0032 | -0.0895 | -0.0732 | 0.0164 | -0.122 | -0.009 | -0.0327 | 0.0048 | -0.0707 | -0.0113 | -0.109 | -0.0425 | -0.0087 | -0.162 | -0.0009
10 | COc1cccc(OCCCN)c1-c1cc(Nc2cnc(C#N)cn2)n[nH]1 [Prexasertib] + C=CCn1c(=O)c2cnc(Nc3ccc(N4CCN(C)CC4)cc3)nc2n1-c1cccc(C(C)(C)O)n1 [AZD1775] (first compound max 1 µM, partner max 1 µM) | 0.0323 | 0.047 | 0.0196 | 0.036 | 0.0466 | 0.0963 | -0.0454 | -0.0247 | 0.0475 | 0.0364 | 0.0349 | 0.071 | -0.0245 | -0.0156 | 0.0668 | 0.0153 | 0.0613 | 0.0507 | 0.112 | 0.0795
11 | NC1(C(=O)N[C@@H](CCO)c2ccc(Cl)cc2)CCN(c2ncnc3[nH]ccc23)CC1 [Capivasertib] + COc1nnc2ccc(N3CCC(c4ccc(OCCN5CCN(C)C(=O)[C@H]5C)cc4)CC3)nn12 [AZD5153] (first compound max 10 µM, 7x7, partner max 1 µM) | 0.0657 | 0.0335 | 0 | 0.0367 | -0.0019 | -0.0489 | 0.0076 | -0.0029 | 0.0043 | 0.0097 | 0.0042 | -0.0003 | 0.0361 | 0.0253 | -0.008 | 0.0669 | -0.0155 | -0.0517 | -0.0394 | 0.0231
12 | C=CCn1c(=O)c2cnc(Nc3ccc(N4CCN(C)CC4)cc3)nc2n1-c1cccc(C(C)(C)O)n1 [AZD1775] + C[C@@H]1COCCN1C2=NC(=NC(=C2)C3(CC3)[S@](=N)(=O)C)C4=C5C=CNC5=NC=C4 [AZD6738] (first compound max 1 µM, partner max 10 µM) | 0.0473 | 0.0462 | -0.0377 | -0.0287 | -0.0346 | 0.0366 | 0.0235 | -0.0089 | 0.0362 | 0.0737 | -0.0092 | -0.0023 | -0.0843 | -0.0902 | 0.0218 | -0.0173 | -0.0359 | 0.0491 | 0.0201 | 0.0645
13 | COc1cccc(OCCCN)c1-c1cc(Nc2cnc(C#N)cn2)n[nH]1 [Prexasertib] + Cc1cc2ncnn2cc1Nc1ncc2c(n1)n(C1CCOCC1)c(=O)n2C [AZD7648] (first compound max 1 µM, 7x7, partner max 10 µM) | -0.0074 | 0.0184 | -0.0343 | -0.0063 | -0.0084 | 0.0069 | -0.0518 | -0.0377 | -0.0274 | -0.0495 | 0.001 | -0.0319 | 0.0129 | -0.0975 | -0.0315 | -0.0495 | -0.0816 | -0.044 | -0.0289 | -0.0121
14 | Cc1c2c(nn1C)CSCc1cc(n(C)n1)CSc1cc(c3ccccc3c1)OCCCc1c(C(=O)O)n(C)c3c-2c(Cl)ccc13 [AZD5991] + CCN(CCO)CCCOc1ccc2c(Nc3cc(CC(=O)Nc4cccc(F)c4)[nH]n3)ncnc2c1 [AZD2811] (first compound max 1 µM, 7x7, partner max 1 µM) | 0.0104 | 0.0013 | 0.0252 | 0.0126 | 0.0054 | 0.0169 | 0.0482 | 0.0498 | -0.0729 | 0.0556 | 0.0188 | 0.0711 | -0.0313 | -0.0485 | -0.0241 | 0.0247 | 0.0191 | -0.0839 | 0.0492 | -0.0949
